Assay results: patent US8129527B2, “Analogs of dehydrophenylahistins and their therapeutic use” (Nereus Pharmacuticals, Inc., priority 2006, dated 2012)

Assays:
[1] = test system: PC3 (human prostate tumor); assay: Tumor panel screen cytotoxicity (Example 10A); type: cell-based; conditions: PC-3 Prostate
From the text: (§1) Cells were maintained at subconfluent densities in their respective culture media.

[2] = test system: OVCAR-3 (human ovarian tumor); assay: Tumor panel screen cytotoxicity (Example 10A); type: cell-based; conditions: OVCAR-3 Ovary
From the text: as §1

[3] = test system: A549 human non small cell lung tumor; assay: A549 Human Lung Tumor Xenograft Model; type: in vivo, nude mice; conditions: KPU-2 7.5 mg/kg ip qdx5 with taxotere
Method: Animals used were (exceptions are indicated for individual studies): female nude mice (nu/nu) between 5 and 6 weeks of age (˜20 g, Harlan); group size was 9-10 mice per group unless otherwise indicated.
Selected novel compounds were administered as monotherapy via the intraperitoneal (i.p.) route at the doses indicated for the individual study; for the combination studies the selected reference chemotherapy agents were injected 15-30 min prior to the compound.
Saline dilutions are used to achieve the injection concentrations used for the reference compounds.
Animals were implanted s.c. by trocar with fragments of A549 tumors harvested from s.c. growing tumors in nude mice hosts. When the tumor size reached 5 mm×5 mm (about 10-17 days) the animals were matched into treatment and control groups.

HuVEC = assay: Action on microtubule function, α-tubulin staining; conditions: 2 μM, thirty minutes exposure
[4] = test system: MES-SA (Taxol Sensitive) human uterine sarcoma; assay: Drug resistant cell line pair, cytotoxicity (Example 10B); type: cell-based; conditions: Homo sapiens, MES-SA, CsA Pretreat, Studies II-III in separate lines
From the text: (§2) 1) Human Uterine Sarcoma Tumor Cell Line Pair: MES-SA (Taxol Sensitive) and MES-SA/Dx5 (Taxol Resistant).

[5] = test system: MES-SA/Dx5 (Taxol Resistant) human uterine sarcoma; assay: as above; type: cell-based; conditions: Homo sapiens, MES-SA/Dx5, MES-SA/DX5 Resistant, CsA Pretreat; Studies II-III in separate lines
From the text: as §2

c-RAF (human) = c-RAF (human) (Homo sapiens, UniProt P04049); conditions: ATP 10 μM
Sequence of c-RAF (human) (P04049 whole entry): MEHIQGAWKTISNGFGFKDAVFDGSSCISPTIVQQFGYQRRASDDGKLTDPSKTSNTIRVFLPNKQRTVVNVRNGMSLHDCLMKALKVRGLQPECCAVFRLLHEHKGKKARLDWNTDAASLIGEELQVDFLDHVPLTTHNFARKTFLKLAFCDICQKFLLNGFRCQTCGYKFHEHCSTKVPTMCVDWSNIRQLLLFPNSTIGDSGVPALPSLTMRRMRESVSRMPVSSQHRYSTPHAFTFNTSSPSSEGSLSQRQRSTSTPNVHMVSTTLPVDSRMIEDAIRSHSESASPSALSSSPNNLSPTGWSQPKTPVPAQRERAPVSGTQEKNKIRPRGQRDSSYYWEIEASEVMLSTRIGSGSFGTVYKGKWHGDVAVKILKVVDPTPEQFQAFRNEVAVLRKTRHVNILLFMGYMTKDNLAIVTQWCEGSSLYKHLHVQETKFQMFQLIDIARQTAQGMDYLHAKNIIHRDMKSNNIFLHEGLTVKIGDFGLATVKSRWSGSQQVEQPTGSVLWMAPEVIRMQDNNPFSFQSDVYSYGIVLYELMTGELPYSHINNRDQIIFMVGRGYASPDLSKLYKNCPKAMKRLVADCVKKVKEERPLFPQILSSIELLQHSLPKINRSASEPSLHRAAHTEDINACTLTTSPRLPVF

MCF-7 human breast tumor = assay: MCF-7 Human Breast Tumor Xenograft Model; type: in vivo, nude mice; conditions: in combination with taxotere
In short: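 Female nu/nu mice (~20 g, 5–6 wk) given 21-day estrogen pellets (0.25 mg) s.c. 24 h before s.c. MCF-7 tumor fragment implantation; 9–10 mice/group. Compounds dosed i.p. (qdx5 Days 1–5, or Days 1, 2, 3, 4, 7); taxotere i.v. (Days 1, 3, 5 or 1, 3, 7), given 15–30 min before compound in combinations.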

[6] = test system: human prostate tumor cells; assay: Induction of apoptosis, morphological changes; type: cell-based
From the text: Apoptosis and its dysregulation play an important role in oncology; the selective induction of the programmed cell death cycle in tumor cells is the goal of many chemotherapeutic drug discovery programs.
The characteristic signs of apoptotic cell death include cell membrane blebbing, disruption of nuclei, cell shrinkage and condensation and finally cell death, very distinctive from necrotic cell death. […] A similar finding was also clear in the treatment of HuVEC cells with KPU-2.

[7] = test system: MDA-231 human breast tumor; assay: MDA-231 Human Breast Tumor Orthotopic Xenograft Model (mammary fat pad); type: in vivo, nude mice; conditions: KPU-2 7.5 mg/kg ip q3dx5 with paclitaxel 16 mg/kg ip qdx5, three weeks
Method: (§3) The animals used were: female nude mice (nu/ni) (MDA-231 study) or B6D2F1 (B16-F10 studies) mice between 5 and 6 weeks of age (˜20 g, Harlan); group size was 10 mice per group unless otherwise indicated.
(§4) The cell lines used were: MDA-MB-231 human breast tumor and B16-F10 murine melanoma cells.
(§5) NPI compounds were administered as monotherapy via the intraperitoneal route at the doses indicated for the individual study; for the combination studies the selected reference chemotherapy agents were injected 15-30 min prior to the NPI compound.
Female nude mice were injected in the mammary fat pad with 2×10^6 MDA-231 cells harvested from in vitro cell culture. When the tumor size reached 5 mm×5 mm (about 14-28 days) the animals were matched into treatment and control groups. The study then proceeded as described for the HT-29 model, using paclitaxel as the standard chemotherapy agent.
In this model unless otherwise noted for the individual study, the test compounds were administered via the intraperitoneal route on Days 1, 4, 8, 11 and 15 (q3dx5); paclitaxel was administered via the intraperitoneal route on Days 1-5 (qdx5).
This model involves the placement of the human tumor tissue into the mouse mammary fat pad, a surrogate of the natural environment. In this manner the possibility of a positive effect due to a specific action on the subcutaneous vascular bed is avoided.

[8] = target: panel of 60 different kinases; assay: Broad kinase screen, primary screen; type: biochemical; conditions: 10 μM compound, ATP 10 μM, 60 kinases
[9] = test system: B16-F10 murine melanoma cells; assay: B16-F10 Metastatic Murine Melanoma Model; type: in vivo, B6D2F1 mice; conditions: monotherapy, lung surface metastases day 16
Method: as §3, §4, §5
Mice received B16-F10 cells (prepared from an in vitro cell culture of B16-F10 cells) by the iv route on Day 0. On Day 1 mice were randomized into treatment and control groups and treatment commenced. Mice were weighed twice weekly, starting on Day 1. All mice are sacrificed on Day 16, the lungs removed, weighed and the surface colonies counted. Results are expressed as mean colonies of treated mice/mean colonies of control mice (T/C)×100%). The metastasis growth inhibition (MGI) is this number subtracted from 100%. Paclitaxel was the standard chemotherapy agent used in this study.
In this model unless otherwise noted for the individual study, the test compounds were administered via the intraperitoneal route on Days 1-5 (qdx5); paclitaxel was administered intravenously on Days 1-5(qdx5).

[10] = test system: bovine brain microtubule protein; assay: Tubulin polymerization assay, turbidity (Example 21); type: biochemical; conditions: 5 μM in 1% DMSO
Method: Polymerization of bovine brain microtubule protein (Cytoskeleton, Inc., Denver, Colo.) was monitored by an increase in turbidity at 37° C. in microtubule buffer (80 mM PIPES, pH 6.8, 1 mM MgCl2, 1 mM EGTA, 1 mM GTP, 10% glycerol). […] Turbidity was measured as an increase in optical density at 340 nm with a thermo-controlled spectrophotometer (model 680XR microplate Reader™, Bio-Rad Laboratories).

Jurkat cells = assay: cells; type: cell-based; conditions: Jurkat cells
[11] = test system: Jurkat cells (human T cell leukemia line); assay: DNA fragmentation (DNA laddering); type: cell-based
From the text: A late stage characteristic of apoptosis is internucleosomal DNA cleavage that results in a distinctive ladder pattern that can be visualized by gel electrophoresis.

`CC(C)(C)c1[nH]cnc1/C=c1\[nH]c(=O)/c(=C/c2ccccc2)[nH]c1=O` [KPU-2, tBu-dehydro-PLH] was tested, and the IC50 ([1]; Homo sapiens) was 13.4 nM, the “% Cytotoxicity Mean” value ([1]; maximum cytotoxic effect) was 60.3% and the IC50 ([2]; Homo sapiens) was over 20000 nM. The “% Cytotoxicity Mean” value ([2]; maximum cytotoxic effect) was 45.8%, the “TGI of the cotherapy group” value [3] was 74.4% and the “microtubule depolymerization in HuVEC cells” value (HuVEC) was “induced microtubule depolymerization”. The IC50 [4] was 27.4 nM, the IC50 [5] was 37.8 nM and the IC50 (c-RAF (human)) was 8900 nM. The “effect on estimated tumor growth” value (MCF-7 human breast tumor) was “appeared to be the most effective”, the “morphological changes of apoptosis” value [6] was “induced the typical morphological changes associated with early stages of apoptosis” and the “inhibition of tumor growth” value [7] was “significant inhibition of tumor growth”. The “kinases inhibited in the primary screen” value [8] was “Four kinases were inhibited by greater than 50%”, the “MGI (metastasis growth inhibition)” value [9] was 41.6% and the tubulin polymerization [10] was “inhibit tubulin polymerization”. For the same compound, the “Cytotoxicity Efficacy % Cell Death” value (Jurkat cells) was 94% and the “concentration inducing DNA laddering” value [11] was 1 nM.
